# According to PubChem BioAssay AID1963970 (Molecular Pharmacology Branch, DTP, NCI, 2024):
# System: 931267-113-T-J1-PDC multicell spheroid viability
# Assay: Anticancer human tumor 931267-113-T-J1-PDC patient-derived colon adenocarcinoma cell line growth inhibition [PI3K]
# Settings: for viability, T/C: stronger effect = lower value
# In short: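 Multi-cell spheroids combine tumor cells with HUVEC and human MSCs, treated with targeted agents alone or with inavolisib, alpelisib, duvelisib or copanlisib. Concentrations fall in half-log steps from at or near clinical Cmax, or from 10 microM where Cmax is unknown; viability read-out.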
# [1] = curve of first compound, second compound 0.0316 µM
# [2] = curve of first compound, second compound 0.1 µM
# [3] = curve of first compound, second compound 0.316 µM
# [4] = curve of first compound, second compound 1 µM
# [5] = curve of first compound, second compound 3.16 µM
# [6] = curve of first compound, second compound 10 µM
# [7] = second compound 0.0316 µM, first compound 0.00316 µM
# [8] = second compound 0.0316 µM, first compound 0.01 µM
# [9] = second compound 0.0316 µM, first compound 0.0316 µM
# [10] = second compound 0.0316 µM, first compound 0.1 µM
# [11] = second compound 0.1 µM, first compound 0.00316 µM
# [12] = second compound 0.1 µM, first compound 0.01 µM
# [13] = second compound 0.1 µM, first compound 0.0316 µM
# [14] = second compound 0.1 µM, first compound 0.1 µM
# [15] = second compound 0.316 µM, first compound 0.00316 µM
# [16] = second compound 0.316 µM, first compound 0.01 µM
# [17] = second compound 0.316 µM, first compound 0.0316 µM
# [18] = second compound 0.316 µM, first compound 0.1 µM
# [19] = second compound 1 µM, first compound 0.00316 µM
# [20] = second compound 1 µM, first compound 0.01 µM
# [21] = second compound 1 µM, first compound 0.0316 µM
# [22] = second compound 1 µM, first compound 0.1 µM
# [23] = second compound 3.16 µM, first compound 0.00316 µM
# [24] = second compound 3.16 µM, first compound 0.01 µM
# [25] = second compound 3.16 µM, first compound 0.0316 µM
# [26] = second compound 3.16 µM, first compound 0.1 µM
# [27] = second compound 10 µM, first compound 0.00316 µM
# [28] = second compound 10 µM, first compound 0.01 µM
# [29] = second compound 10 µM, first compound 0.0316 µM
# [30] = second compound 10 µM, first compound 0.1 µM
# [31] = second compound 0.0316 µM, first compound 0.316 µM
# [32] = second compound 0.0316 µM, first compound 1 µM
# [33] = second compound 0.1 µM, first compound 0.316 µM
# [34] = second compound 0.1 µM, first compound 1 µM
# [35] = second compound 0.316 µM, first compound 0.316 µM
# [36] = second compound 0.316 µM, first compound 1 µM
# [37] = second compound 1 µM, first compound 0.316 µM
# [38] = second compound 1 µM, first compound 1 µM
# [39] = second compound 3.16 µM, first compound 0.316 µM
# [40] = second compound 3.16 µM, first compound 1 µM
# [41] = second compound 10 µM, first compound 0.316 µM
# [42] = second compound 10 µM, first compound 1 µM
# [43] = second compound 0.0316 µM, first compound 3.16 µM
# [44] = second compound 0.0316 µM, first compound 10 µM
# [45] = second compound 0.1 µM, first compound 3.16 µM
# [46] = second compound 0.1 µM, first compound 10 µM
# [47] = second compound 0.316 µM, first compound 3.16 µM
# [48] = second compound 0.316 µM, first compound 10 µM
# [49] = second compound 1 µM, first compound 3.16 µM
# [50] = second compound 1 µM, first compound 10 µM
# 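Further: viability read 7 days after compound addition.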
smiles,measurement,setting,value
CC(C)n1nc(-c2ccc3oc(N)nc3c2)c2c(N)ncnc21 + CC(Nc1ncnc2nc[nH]c12)c1cc2cccc(Cl)c2c(=O)n1-c1ccccc1,IC50,[1],> 0.1 µM
same,IC50,[2],> 0.1 µM
same,IC50,[3],> 0.1 µM
same,IC50,[4],> 0.1 µM
same,IC50,[5],> 0.1 µM
same,IC50,[6],> 0.1 µM
same,"viability, T/C","second compound 0.0316 µM, first compound 0.000316 µM",101%
same,"viability, T/C","second compound 0.0316 µM, first compound 0.001 µM",103%
same,"viability, T/C",[7],97.8%
same,"viability, T/C",[8],88.7%
same,"viability, T/C",[9],92.6%
same,"viability, T/C",[10],51.7%
same,"viability, T/C","second compound 0.1 µM, first compound 0.000316 µM",106%
same,"viability, T/C","second compound 0.1 µM, first compound 0.001 µM",104%
same,"viability, T/C",[11],92.7%
same,"viability, T/C",[12],89.5%
same,"viability, T/C",[13],79.8%
same,"viability, T/C",[14],55.8%
same,"viability, T/C","second compound 0.316 µM, first compound 0.000316 µM",113%
same,"viability, T/C","second compound 0.316 µM, first compound 0.001 µM",105%
same,"viability, T/C",[15],93%
same,"viability, T/C",[16],94.2%
same,"viability, T/C",[17],86.5%
same,"viability, T/C",[18],54.1%
same,"viability, T/C","second compound 1 µM, first compound 0.000316 µM",95.6%
same,"viability, T/C","second compound 1 µM, first compound 0.001 µM",98%
same,"viability, T/C",[19],91%
same,"viability, T/C",[20],92.2%
same,"viability, T/C",[21],87.5%
same,"viability, T/C",[22],57%
same,"viability, T/C","second compound 3.16 µM, first compound 0.000316 µM",93.8%
same,"viability, T/C","second compound 3.16 µM, first compound 0.001 µM",95%
same,"viability, T/C",[23],88.4%
same,"viability, T/C",[24],88.8%
same,"viability, T/C",[25],81.8%
same,"viability, T/C",[26],52.5%
same,"viability, T/C","second compound 10 µM, first compound 0.000316 µM",87.5%
same,"viability, T/C","second compound 10 µM, first compound 0.001 µM",83.9%
same,"viability, T/C",[27],91.6%
same,"viability, T/C",[28],84.3%
same,"viability, T/C",[29],74.8%
same,"viability, T/C",[30],58.9%
CC(Nc1ncnc2nc[nH]c12)c1cc2cccc(Cl)c2c(=O)n1-c1ccccc1 (stereo not given),"viability, T/C",compound 0.0316 µM,102% [middle of 8 runs]
same,"viability, T/C",compound 0.1 µM,99.7% [middle of 8 runs]
same,"viability, T/C",compound 0.316 µM,102% [middle of 8 runs]
same,"viability, T/C",compound 1 µM,100% [middle of 8 runs]
same,"viability, T/C",compound 3.16 µM,99.7% [middle of 8 runs]
same,"viability, T/C",compound 10 µM,96.7% [middle of 8 runs]
same,IC50,"compound alone, run of 05/09/2023",> 10 µM
CCN1CCN(Cc2ccc(Nc3ncc(F)c(-c4cc(F)c5nc(C)n(C(C)C)c5c4)n3)nc2)CC1 + Cc1nc(NC(=O)N2CCCC2C(N)=O)sc1-c1ccnc(C(C)(C)C(F)(F)F)c1,IC50,[1],> 1 µM
same,IC50,[2],> 1 µM
same,IC50,[3],> 1 µM
same,IC50,[4],> 1 µM
same,IC50,[5],> 1 µM
same,IC50,[6],> 1 µM
same,"viability, T/C",[7],91.7%
same,"viability, T/C",[8],99.6%
same,"viability, T/C",[9],100%
same,"viability, T/C",[10],103%
same,"viability, T/C",[31],94.3%
same,"viability, T/C",[32],86.2%
same,"viability, T/C",[11],98%
same,"viability, T/C",[12],97.1%
same,"viability, T/C",[13],102%
same,"viability, T/C",[14],96.5%
same,"viability, T/C",[33],84.6%
same,"viability, T/C",[34],84.5%
same,"viability, T/C",[15],91.2%
same,"viability, T/C",[16],81.2%
same,"viability, T/C",[17],96.1%
same,"viability, T/C",[18],91.8%
same,"viability, T/C",[35],81%
same,"viability, T/C",[36],75.1%
same,"viability, T/C",[19],69.4%
same,"viability, T/C",[20],83.1%
same,"viability, T/C",[21],79.7%
same,"viability, T/C",[22],77.5%
same,"viability, T/C",[37],71.5%
same,"viability, T/C",[38],62.4%
same,"viability, T/C",[23],71.4%
same,"viability, T/C",[24],80.7%
same,"viability, T/C",[25],66.8%
same,"viability, T/C",[26],61.9%
same,"viability, T/C",[39],55.8%
same,"viability, T/C",[40],59.4%
same,"viability, T/C",[27],58.6%
same,"viability, T/C",[28],57%
same,"viability, T/C",[29],50.1%
same,"viability, T/C",[30],43.3%
same,"viability, T/C",[41],50.4%
same,"viability, T/C",[42],57.2%
CC(C)NCC(C(=O)N1CCN(c2ncnc3c2C(C)CC3O)CC1)c1ccc(Cl)cc1 (stereo not given) + CC(Nc1ccc2c(c1)OCCn1cc(N3C(=O)OCC3C(F)F)nc1-2)C(N)=O,IC50,"curve of first compound, second compound 0.00316 µM",> 10 µM
same,IC50,"curve of first compound, second compound 0.01 µM",> 10 µM
same,IC50,[1],> 10 µM
same,IC50,[2],> 10 µM
same,IC50,[3],> 10 µM
same,IC50,[4],> 10 µM
same,"viability, T/C","second compound 0.00316 µM, first compound 0.0316 µM",91%
same,"viability, T/C","second compound 0.00316 µM, first compound 0.1 µM",90.8%
same,"viability, T/C","second compound 0.00316 µM, first compound 0.316 µM",92.9%
same,"viability, T/C","second compound 0.00316 µM, first compound 1 µM",95.5%
same,"viability, T/C","second compound 0.00316 µM, first compound 3.16 µM",86.8%
same,"viability, T/C","second compound 0.00316 µM, first compound 10 µM",67.3%
same,"viability, T/C","second compound 0.01 µM, first compound 0.0316 µM",102%
same,"viability, T/C","second compound 0.01 µM, first compound 0.1 µM",94.3%
same,"viability, T/C","second compound 0.01 µM, first compound 0.316 µM",97.2%
same,"viability, T/C","second compound 0.01 µM, first compound 1 µM",95.2%
same,"viability, T/C","second compound 0.01 µM, first compound 3.16 µM",83.5%
same,"viability, T/C","second compound 0.01 µM, first compound 10 µM",69.8%
same,"viability, T/C",[9],103%
same,"viability, T/C",[10],105%
same,"viability, T/C",[31],99.2%
same,"viability, T/C",[32],94.8%
same,"viability, T/C",[43],96.4%
same,"viability, T/C",[44],69.9%
same,"viability, T/C",[13],101%
same,"viability, T/C",[14],95.7%
same,"viability, T/C",[33],97.9%
same,"viability, T/C",[34],96.2%
same,"viability, T/C",[45],84.2%
same,"viability, T/C",[46],64.7%
same,"viability, T/C",[17],85.3%
same,"viability, T/C",[18],84.5%
same,"viability, T/C",[35],83.7%
same,"viability, T/C",[36],85.4%
same,"viability, T/C",[47],80.5%
same,"viability, T/C",[48],66.7%
same,"viability, T/C",[21],73%
same,"viability, T/C",[22],75.4%
same,"viability, T/C",[37],72.1%
same,"viability, T/C",[38],76%
same,"viability, T/C",[49],82.9%
same,"viability, T/C",[50],59.9%
CC(Cn1ccc(-c2ccc(C#N)c(Cl)c2)n1)NC(=O)c1cc(C(C)O)[nH]n1 (stereo not given) + CC(Nc1ncnc2nc[nH]c12)c1cc2cccc(Cl)c2c(=O)n1-c1ccccc1,IC50,[1],> 10 µM
same,IC50,[2],> 10 µM
same,IC50,[3],> 10 µM
same,IC50,[4],> 10 µM
same,IC50,[5],> 10 µM
same,IC50,[6],> 10 µM
same,"viability, T/C",[9],104%
same,"viability, T/C",[10],110%
same,"viability, T/C",[31],106%
same,"viability, T/C",[32],105%
same,"viability, T/C",[43],116%
same,"viability, T/C",[44],96.7%
same,"viability, T/C",[13],114%
same,"viability, T/C",[14],101%
same,"viability, T/C",[33],102%
same,"viability, T/C",[34],108%
same,"viability, T/C",[45],102%
same,"viability, T/C",[46],103%
same,"viability, T/C",[17],111%
same,"viability, T/C",[18],107%
same,"viability, T/C",[35],104%
same,"viability, T/C",[36],107%
same,"viability, T/C",[47],105%
same,"viability, T/C",[48],101%
same,"viability, T/C",[21],113%
same,"viability, T/C",[22],110%
same,"viability, T/C",[37],102%
same,"viability, T/C",[38],118%
same,"viability, T/C",[49],107%
same,"viability, T/C",[50],102%
same,"viability, T/C",[25],103%
same,"viability, T/C",[26],98.5%
same,"viability, T/C",[39],87%
same,"viability, T/C",[40],99.6%
same,"viability, T/C","second compound 3.16 µM, first compound 3.16 µM",101%
same,"viability, T/C","second compound 3.16 µM, first compound 10 µM",94.7%
same,"viability, T/C",[29],88%
same,"viability, T/C",[30],94.8%
same,"viability, T/C",[41],99.4%
same,"viability, T/C",[42],95.8%
same,"viability, T/C","second compound 10 µM, first compound 3.16 µM",92.5%
same,"viability, T/C","second compound 10 µM, first compound 10 µM",87.8%
